{
  "source": "patent US9233116B2",
  "about": "“Composition containing iridoids and uses thereof” (XUANWU HOSPITAL OF CAPITAL MEDICAL UNIVERSITY, priority 2010, dated 2016)",
  "key": {"[1]": {"tested_on": "experimental autoimmune encephalomyelitis (EAE) mice model", "assay": "Nervous function score in EAE mice model", "format": "in vivo, C57BL/6J mice", "conditions": "peak of attack, positive control drug, dose not given", "protocol": "(§1) Preparation of mice model and administration: experimental autoimmune encephalomyelitis (EAE) mice model is an important tool for studying various human nervous system demyelinating diseases. In the present experiment, the preparation of EAE mice model was performed by immunizing female C57BL/6J mice with myelin sheath oligodendroglial cell surface glycoprotein MOG35-55. That is, the mice were subcutaneously injected at dorsal part of spinal column with 0.2 mL of MOG35-55 antigen elixir, and 0.2 ml of bordetella pertussis solution was intraperitoneally injected at the time of immunization injection and 48 h thereafter, respectively. The composition of morroniside and loganin was intragastrically administered after the last injection of bordetella pertussis solution, for consecutive 3 weeks.\nNervous function test method: the ethological changes of mice were observed by two experimenters every day using blind method. Scoring standard: 0 score, absence of symptom; 1 score, decrease of tail tension, evident slight gait awkward; 2 score, disappearance of tail tension, moderate gait abnormal, deficient in maintaining gesture; 3 score, limb strength weak; 4 score, limb paralysis; 5 score, near death or died."}, "[2]": {"assay": "Body weight drop in EAE mice model", "format": "in vivo, C57BL/6J mice", "conditions": "peak of attack, positive control drug, dose not given", "protocol": "as §1\nExperimental method: the methods for modeling and administration were the same of Experiment 1. The body weight changes of mice were recorded every day."}, "[3]": {"tested_on": "myelin sheath of spinal cord in EAE model mice", "assay": "Myelinoclasis of spinal cord in EAE mice model (LFB staining)", "format": "in vivo", "conditions": "day 29, positive control drug, dose not given", "protocol": "as §1\nExperimental method: the mice were anesthetized with 10% chloral hydrate on the 29th day of experiment, fixed by perfusion of 4% paraformaldehyde, myeloid tissues were taken for making paraffin sections, section thickness 5 μm. Stained with LFB, observed under microscope, and scored according to the following standard: 0 score, absence of myelinoclasis; 1 score, one small range of myelinoclasis; 2 score, 2 or 3 small ranges of myelinoclasis; 3 score, 1 to 2 large ranges of myelinoclasis; 4 score, large ranges of myelinoclasis accumulatively existing in 20% or more of white matter regions."}, "[4]": {"tested_on": "spinal cord tissues of EAE mice model", "assay": "Inflammatory cell infiltration in spinal cord tissues of EAE mice model (HE staining)", "format": "in vivo", "conditions": "day 29, positive control drug, dose not given", "protocol": "as §1, with “The composition of morroniside and loganin was intragastrically administered after the last injection of bordetella pertussis solution, for consecutive 3 weeks.” left out\nExperimental method: the mice were anesthetized with 10% chloral hydrate on the 29th day of experiment, fixed by perfusion of 4% paraformaldehyde, spinal cord tissues were taken for making paraffin sections, section thickness 5 μm. Stained with HE, observed under microscope, and scored according to the following standard: 0 score, absence of cell infiltration; 1 score, spinal meninge cell infiltration; 2 score, 1 to 4 small ranges of cell infiltration around vessels; 3 score, 5 or more small ranges of cell infiltration around vessels, or one or more accumulatively substantial large range of cell infiltration; 4 score, a large number of cell infiltration ranges accumulatively existing in 20% or more of white matter regions."}, "IL-1": {"tested_on": "IL-1", "assay": "Serum IL-1 content in EAE mice model (ELISA)", "format": "in vivo", "conditions": "serum of EAE mice; positive control drug, dose not given", "protocol": "as §1\n(§2) Experimental method: mice were anesthetized with pentobarbital sodium, blood sample was taken from abdominal aorta, stood at room temperature for 2 h, centrifuged at 3000 rpm for 20 min, and supernatant was taken, stored at −80° C. for use. The operation was performed strictly according to the steps of specification of ELISA kit. Optical density was measured with ELIASA at 450 nm. The corresponding contents of IL-1 and IL-6 were calculated with the measured OD values on standard curve."}, "IL-6": {"tested_on": "IL-6", "assay": "Serum IL-6 content in EAE mice model (ELISA)", "format": "in vivo", "conditions": "serum of EAE mice; positive control drug, dose not given", "protocol": "as §1, §2"}, "[5]": {"tested_on": "CNPase (marker protein of mature oligodendroglial cells)", "assay": "CNPase content in spinal cord of EAE model mice (Western blot)", "format": "in vivo", "conditions": "positive control drug, dose not given", "protocol": "as §1\nExperimental method: the mice were anesthetized and sacrificed, fresh spinal cord was taken on ice, total protein was extracted by clearage on ice, to prepare Western blot sample, added with CNPase primary antibody and incubated, added with corresponding secondary antibody, ECL colorated, Kodak film exposed. Pictures were analyzed with Image J software and standardized with actin."}, "[6]": {"tested_on": "experimental autoimmune encephalomyelitis (EAE) rats model", "assay": "Nervous function damage in EAE rats model", "format": "in vivo, Lewis rats", "conditions": "peak of attack, positive control drug, dose not given", "protocol": "(§3) Preparation of rat model and administration: in this experiment, the preparation of EAE rat model was performed by multipoint immunizing female Lewis rats subcutaneously at tail root with a homogenate of spinal cord and cerebral gray matter of Guinea pig as well as complete Freund's adjuvant after emulsification. They were intragastrically administered with a composition of morroniside and loganin for 3 weeks.\nNervous function test method: the ethological changes of rats were observed by two experimenters using blind method every day. Scoring standard: 0 score, absence of symptom; 1 score, decrease of tail tension, visible evident slight gait awkward; 2 score, double hind limbs weak, walk difficult; 3 score, double hind limbs paralysis; 4 score, double hind limbs paralysis and fore limbs weak; 5 score, four limbs paralysis; 6 score, near death or died."}, "[7]": {"assay": "Body weight drop in EAE rat model", "format": "in vivo, Lewis rats", "conditions": "EAE rats, peak of attack; positive control drug, dose not given", "protocol": "as §3\nExperimental method: the methods for modeling and administration were the same of Experiment 7. The body weight changes of rats were recorded every day."}},
  "data": [
    {"smiles": "CC(=O)OCC(=O)[C@@]1(O)CC[C@H]2[C@@H]3CCC4=CC(=O)C=C[C@]4(C)[C@H]3C(=O)C[C@@]21C", "note": "[prednisone acetate]", "values": [
      {"measurement": "Nervous function damage score", "setting": "[1]", "value": "1.36 ± 0.62", "unit": "score"},
      {"measurement": "Bodyweight", "setting": "[2]", "value": "20.52 ± 1.19", "unit": "g"},
      {"measurement": "Myelinoclasis (LFB staining score)", "setting": "[3]", "value": "0.81 ± 0.21", "unit": "score"},
      {"measurement": "Inflammatory cell infiltration (HE staining score)", "setting": "[4]", "value": "1.16 ± 0.12", "unit": "score"},
      {"measurement": "1L-1 content", "setting": "IL-1", "value": "0.114 ± 0.001", "unit": "pg/mL"},
      {"measurement": "IL-6 content", "setting": "IL-6", "value": "0.124 ± 0.002", "unit": "pg/mL"},
      {"measurement": "Oligodendroglial cells (CNPase/actin integration grey level)", "setting": "[5]", "value": "1.18 ± 0.02"},
      {"measurement": "Nervous function damage score", "setting": "[6]", "value": "1.16 ± 1.21", "unit": "score"},
      {"measurement": "Bodyweight", "setting": "[7]", "value": "198.5 ± 7.1", "unit": "g"}
    ]}
  ]
}
